Test results: US7846959B2, “Raf modulators and methods of use” (Exelixis, Inc., priority 2004, dated 2010)

Key:
[1] = target: B-Raf (Homo sapiens, UniProt P15056); test: Luciferase-coupled chemiluminescence kinase assay (ATP consumption), B-Raf; format: biochemical; details: read-out: bRaf (inhibition indicated as IC50)
In short: (§1)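 ATP depletion, limited to 25-60%, read by luciferase-luciferin chemiluminescence gives IC50 values. Before the 3 hr ambient-temperature kinase reaction with ATP, compound and […] enzyme were preincubated 30 minutes at room temperature in Tris pH 7.5 buffer with MgCl2, TX-100 and DTT.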

[2] = target: c-Raf (Homo sapiens, UniProt P04049); test: Luciferase-coupled chemiluminescence kinase assay (ATP consumption), c-Raf; format: biochemical; details: read-out: cRaf-1 (inhibition indicated as IC50)
Sequence of c-Raf (P04049 whole entry): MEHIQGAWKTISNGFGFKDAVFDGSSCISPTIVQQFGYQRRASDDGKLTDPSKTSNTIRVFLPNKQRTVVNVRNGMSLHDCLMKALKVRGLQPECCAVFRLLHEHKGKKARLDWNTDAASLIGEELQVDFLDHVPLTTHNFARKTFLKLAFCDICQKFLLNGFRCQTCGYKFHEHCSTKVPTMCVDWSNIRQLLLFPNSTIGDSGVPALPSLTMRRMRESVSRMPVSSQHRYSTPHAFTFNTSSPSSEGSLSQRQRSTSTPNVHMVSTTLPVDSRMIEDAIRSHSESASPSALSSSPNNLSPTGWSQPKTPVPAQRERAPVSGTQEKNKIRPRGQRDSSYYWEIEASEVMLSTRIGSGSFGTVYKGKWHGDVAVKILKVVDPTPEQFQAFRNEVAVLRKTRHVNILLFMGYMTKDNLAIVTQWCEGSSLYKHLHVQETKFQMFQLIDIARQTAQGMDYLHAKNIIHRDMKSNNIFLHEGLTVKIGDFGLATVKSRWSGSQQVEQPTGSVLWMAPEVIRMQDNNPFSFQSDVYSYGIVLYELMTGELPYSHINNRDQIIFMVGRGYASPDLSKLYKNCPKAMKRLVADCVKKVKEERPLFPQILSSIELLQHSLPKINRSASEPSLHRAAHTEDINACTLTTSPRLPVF
In short: as §1

Sequence of B-Raf (P15056 whole entry): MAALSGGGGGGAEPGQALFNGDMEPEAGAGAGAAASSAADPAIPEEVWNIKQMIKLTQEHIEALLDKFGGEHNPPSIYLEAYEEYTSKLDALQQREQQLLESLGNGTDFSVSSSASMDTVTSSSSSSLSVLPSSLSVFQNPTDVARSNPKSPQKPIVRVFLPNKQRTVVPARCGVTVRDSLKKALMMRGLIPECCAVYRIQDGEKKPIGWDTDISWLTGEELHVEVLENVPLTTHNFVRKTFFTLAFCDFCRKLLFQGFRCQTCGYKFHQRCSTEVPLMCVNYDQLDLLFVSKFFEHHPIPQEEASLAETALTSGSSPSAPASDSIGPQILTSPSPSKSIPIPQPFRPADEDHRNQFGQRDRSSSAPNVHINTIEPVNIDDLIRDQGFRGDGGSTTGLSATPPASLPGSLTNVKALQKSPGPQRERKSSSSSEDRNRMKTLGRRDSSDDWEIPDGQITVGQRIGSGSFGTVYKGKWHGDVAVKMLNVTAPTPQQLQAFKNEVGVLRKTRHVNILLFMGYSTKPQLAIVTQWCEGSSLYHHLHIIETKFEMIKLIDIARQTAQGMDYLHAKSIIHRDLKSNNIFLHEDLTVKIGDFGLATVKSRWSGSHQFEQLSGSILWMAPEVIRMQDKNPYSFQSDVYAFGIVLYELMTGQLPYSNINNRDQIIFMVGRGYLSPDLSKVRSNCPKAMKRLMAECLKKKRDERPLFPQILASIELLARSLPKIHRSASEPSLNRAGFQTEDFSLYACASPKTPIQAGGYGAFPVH

IC50 [1]	IC50 [2]	SMILES
< 100 nM	< 100 nM	COC(=O)Nc1nc2ccc(C(=O)c3ccccc3C(=O)Nc3ccc(F)c(Cl)c3)cc2[nH]1 [Entry 401, methyl {6-[(2-{[(3-chloro-4-fluorophenyl)amino]carbonyl}phenyl)carbonyl]-1H-benzimidazol-2-yl}carbamate]
< 100 nM	< 100 nM	COC(=O)Nc1nc2ccc(C(=O)c3ccccc3C(=O)Nc3cc(Cl)ccc3F)cc2[nH]1 [Entry 402, methyl {6-[(2-{[(5-chloro-2-fluorophenyl)amino]carbonyl}phenyl)carbonyl]-1H-benzimidazol-2-yl}carbamate]
< 100 nM	< 100 nM	COC(=O)Nc1nc2ccc(C(=O)c3ccccc3C(=O)Nc3ccc(F)c(Br)c3)cc2[nH]1 [Entry 406, methyl {6-[(2-{[(3-bromo-4-fluorophenyl)amino]carbonyl}phenyl)carbonyl]-1H-benzimidazol-2-yl}carbamate]
< 100 nM	< 100 nM	COC(=O)Nc1nc2ccc(C(=O)c3ccccc3C(=O)Nc3cccc(Cl)c3F)cc2[nH]1 [Entry 407, methyl {6-[(2-{[(3-chloro-2-fluorophenyl)amino]carbonyl}phenyl)carbonyl]-1H-benzimidazol-2-yl}carbamate]
< 100 nM	< 100 nM	COC(=O)Nc1nc2ccc(C(=O)c3ccccc3C(=O)Nc3ccc(F)c(C)c3)cc2[nH]1 [Entry 408, methyl {6-[(2-{[(4-fluoro-3-methylphenyl)amino]carbonyl}phenyl)carbonyl]-1H-benzimidazol-2-yl}carbamate]
< 100 nM	< 100 nM	COC(=O)Nc1nc2ccc(C(=O)c3ccccc3C(=O)Nc3cc(Br)c(F)cc3F)cc2[nH]1 [Entry 410, methyl {6-[(2-{[(5-bromo-2,4-difluorophenyl)amino]carbonyl}phenyl)carbonyl]-1H-benzimidazol-2-yl}carbamate]
< 100 nM	< 100 nM	COC(=O)Nc1nc2ccc(C(=O)c3ccccc3C(=O)Nc3cc(Cl)c(F)cc3F)cc2[nH]1 [Entry 411, methyl {6-[(2-{[(5-chloro-2,4-difluorophenyl)amino]carbonyl}phenyl)carbonyl]-1H-benzimidazol-2-yl}carbamate]
< 100 nM	< 100 nM	C=Cc1cccc(NC(=O)c2ccccc2C(=O)c2ccc3nc(NC(=O)OC)[nH]c3c2)c1 [Entry 413, methyl {6-[(2-{[(3-ethenylphenyl)amino]carbonyl}phenyl)carbonyl]-1H-benzimidazol-2-yl}carbamate]
< 100 nM	< 100 nM	C#Cc1cccc(NC(=O)c2ccccc2C(=O)c2ccc3nc(NC(=O)OC)[nH]c3c2)c1F [Entry 414, methyl {6-[(2-{[(3-ethynyl-2-fluorophenyl)amino]carbonyl}phenyl)carbonyl]-1H-benzimidazol-2-yl}carbamate]
< 100 nM	< 100 nM	C=Cc1cccc(NC(=O)c2ccccc2C(=O)c2ccc3nc(NC(=O)OC)[nH]c3c2)c1F [Entry 418, methyl {6-[(2-{[(3-ethenyl-2-fluorophenyl)amino]carbonyl}phenyl)carbonyl]-1H-benzimidazol-2-yl}carbamate]
< 100 nM	< 100 nM	COC(=O)Nc1nc2ccc(C(=O)c3ccccc3C(=O)Nc3cc(C)ccc3F)cc2[nH]1 [Entry 419, methyl {6-[(2-{[(2-fluoro-5-methylphenyl)amino]carbonyl}phenyl)carbonyl]-1H-benzimidazol-2-yl}carbamate]
